Eight molecules from ChEMBL document CHEMBL1132262, “Estrogen receptor subtype-selective ligands: asymmetric synthesis and biological evaluation of cis- and trans-5,11-dialkyl- 5,6,11, 12-tetrahydrochrysenes” (J Med Chem, 1999) can be followed below.

Molecules are shown by their SMILES.

The assay deals with Estrogen receptor beta (Homo sapiens) (UniProt Q92731). Kind of assay: Binding affinity for human ER(estrogen receptor)beta.
Chain of Estrogen receptor beta (Homo sapiens) (Q92731 whole entry): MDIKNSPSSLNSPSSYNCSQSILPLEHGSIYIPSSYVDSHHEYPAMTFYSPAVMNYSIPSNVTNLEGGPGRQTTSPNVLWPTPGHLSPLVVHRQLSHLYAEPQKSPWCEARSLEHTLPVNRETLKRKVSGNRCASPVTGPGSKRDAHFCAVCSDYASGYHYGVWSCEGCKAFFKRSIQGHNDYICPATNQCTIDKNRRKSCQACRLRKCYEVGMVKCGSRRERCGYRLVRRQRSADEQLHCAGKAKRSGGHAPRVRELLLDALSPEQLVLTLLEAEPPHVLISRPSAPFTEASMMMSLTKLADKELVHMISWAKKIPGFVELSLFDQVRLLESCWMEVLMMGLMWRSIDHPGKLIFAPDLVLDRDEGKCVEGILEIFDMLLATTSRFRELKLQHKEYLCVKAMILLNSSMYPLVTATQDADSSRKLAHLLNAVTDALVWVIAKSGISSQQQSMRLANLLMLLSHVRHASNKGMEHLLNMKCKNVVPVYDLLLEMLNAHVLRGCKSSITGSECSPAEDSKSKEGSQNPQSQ

On to `CC1Cc2cc(O)ccc2C2=C1c1ccc(O)cc1C[C@H]2C` (single isomer, unassigned), for which the Relative binding affinity came out at 76.

For the molecule `CCC[C@H]1Cc2cc(O)ccc2C2=C1c1ccc(O)cc1C[C@@H]2CCC`, the Relative binding affinity is 5.1.

Molecule `C[C@]12CC[C@@H]3c4ccc(O)cc4CC[C@H]3[C@@H]1CC[C@@H]2O` had a Relative binding affinity of 100.

Molecule `Oc1ccc2c(c1)CCC1=C2CCc2cc(O)ccc21` registered a Relative binding affinity of 6.5.

`CC1Cc2cc(O)ccc2C2=C1c1ccc(O)cc1C[C@@H]2C` (single isomer, unassigned) had a Relative binding affinity of 75.

As to `C[C@@H]1Cc2cc(O)ccc2C2=C1c1ccc(O)cc1C[C@@H]2C`, the Relative binding affinity stood at 254.

In turn, `CCC[C@@H]1Cc2cc(O)ccc2C2=C1c1ccc(O)cc1C[C@H]2CCC` returned a Relative binding affinity of 26.

In the case of `CCCC1Cc2cc(O)ccc2C2=C1c1ccc(O)cc1CC2CCC` (stereo not drawn), the Relative binding affinity is 92.3.
